In patent publication US20240398831A1, “COMPOSITIONS COMPRISING SMALL MOLECULE REGULATORS OF TUMOR IMMUNITY AND METHODS OF USING SAME” (Duke University, priority 2021, published 2024):

Test system: CD68+ monocytes/TAMs
Experiment: Single cell RNA sequencing of tumor infiltrating immune cells from iBP tumors
Assay type: in vivo, mouse
Excerpt: Single Cell RNA sequencing. iBP tumors (three) were pooled and a single cell suspension was isolated. Live tumor infiltrating immune cells (CD45^+ L/D^−) were isolated by cell sorting and resuspended in PBS+0.04% BSA at a concentration of 1000 cells/μL. In total, 10,000 cells were loaded on the 10× Genomics Chromium Controller Single-Cell Instrument (10× Genomics) mixed with reverse transcription reagents along with gel beads and oil to generate single-cell gel beads in emulsions (GEMs). GEM-RT was performed in an Eppendorf Mastercycler Pro (cat #950030020, Eppendorf): 53° C. for 45 min; 85° C. for 5 min; then held at 4° C. After reverse transcription, GEMs were disrupted and the single-stranded cDNA was purified using Dynabeads MyOne Silane beads (cat #37002D, Thermo Fisher Scientific). cDNA was amplified using the Eppendorf Mastercycler Pro (cat #950030020, Eppendorf): 98° C. for 3 min; cycled 11×: 98° C. for 15 s, 67° C. for 20 s, and 72° C. for 1 min; 72° C. for 1 min; held at 4° C. The amplified cDNA product was purified with the SPRIselect Reagent Kit (0.6×SPRI) (cat #B23318, Beckman Coulter). Indexed sequencing libraries were constructed using the reagents in the Chromium Single-Cell 3′ version 3 Library Kit, following these steps: (1) fragmentation, end repair and A-tailing; (2) SPRIselect cleanup; (3) adapter ligation; (4) post ligation cleanup with SPRIselect; (5) sample index PCR; (6) PostindexPCR cleanup. The barcoded sequencing libraries were analyzed using quantitative PCR (cat #KK4824, KAPA Biosystems Library Quantification Kit for Illumina platforms). Sequencing libraries were transferred to the Duke University Center for Genomic and Computational Biology (GCB) and were loaded on a NovaSeq6000 (Illumina) for sequencing.
scRNA seq data analysis. Sequencing data was de-multiplexed, trimmed, filtered, aligned, and quantified using the Cell Ranger pipeline (10× Genomics). Reads were aligned to CSC mm10 transcriptome and UMI count matrices for each sample was obtained. The Seurat v3.1 package was used to count matrices. For each sample, cells that express <200 or >2000 genes and cells that express >5% of mitochondrial genes were removed. Highly variable genes were identified and used for principal component analysis. Cell subpopulations were identified using the ‘FindNeighbors’ function with first 30 PCs and ‘FindClusters’ function from Seurat R package with default resolution parameters. Cells were then clustered and visualized using uniform manifold approximation and projection (UMAP) (Liu, Int. J. Mol. Sci. 2020, 21, 16). DE Wilcoxon test analysis was used to identify genes that define a cluster using known cell type signatures and genes that differ within clusters between treatments.
Pseudotime Analysis. To infer the developmental trajectories in the monocyte/macrophage lineages, Monocle3 was used to perform the pseudotime analysis where UMAP coordinates from Seurat were used as input (Cao et al., Nature 2019, 566, 498-502). The graphtest function implemented in Monocle3 was used to find genes that vary with pseudotime where genes with q<0.01 were identified as pseudotime-dependent genes. Cells were divided into four pseudotime blocks (e.g., 0-5, 5-10, 10-15, and 15-21) based on their pseudotime estimate.

[1] = CD68+ cells, Genes down-regulated upon E2 treatment
[2] = CD68+ cells, Genes up-regulated upon E2 treatment

## 17β-estradiol [E2]
[1]
  AA467197 avg_logFC: −1.1474
  Actg1 avg_logFC: −0.2725
  Adam8 avg_logFC: −0.5315
  Arg1 avg_logFC: −1.491
  Arl4c avg_logFC: −0.3255
  Ass1 avg_logFC: −0.2981
  B4galt1 avg_logFC: −0.2593
  Bhlhe40 avg_logFC: −0.4214
  Bnip3 avg_logFC: −0.3241
  Cbl avg_logFC: −0.2587
  Ccl24 avg_logFC: −1.196
  Cd44 avg_logFC: −0.3636
  Cd53 avg_logFC: −0.2831
  Cdh1 avg_logFC: −0.4682
  Cish avg_logFC: −0.2878
  Clec7a avg_logFC: −0.6823
  Clic4 avg_logFC: −0.2836
  Cox17 avg_logFC: −0.2516
  Csrnp1 avg_logFC: −0.2796
  Cxcl2 avg_logFC: −0.3108
  Dazap2 avg_logFC: −0.253
  Ddx3x avg_logFC: −0.2648
  Dusp5 avg_logFC: −0.2644
  Emp1 avg_logFC: −0.3016
  Epb41l2 avg_logFC: −0.2668
  Ero1l avg_logFC: −0.3681
  Errfi1 avg_logFC: −0.2612
  Etv3 avg_logFC: −0.2533
  Fam129b avg_logFC: −0.2732
  Gatm avg_logFC: −0.4728
  Gm13339 avg_logFC: −0.3235
  Gm42418 avg_logFC: −0.3099
  Grina avg_logFC: −0.2527
  Havcr2 avg_logFC: −0.2738
  Hbegf avg_logFC: −0.2883
  Hexim1 avg_logFC: −0.2598
  Hif1a avg_logFC: −0.3016
  Hilpda avg_logFC: −0.3818
  Hk2 avg_logFC: −0.3161
  Hnrnpa2b1 avg_logFC: −0.2507
  Hnrnpu avg_logFC: −0.2502
  Id2 avg_logFC: −0.3235
  Ifi202b avg_logFC: −0.4589
  Ighm avg_logFC: −0.2694
  Il1rn avg_logFC: −0.7087
  Itgax avg_logFC: −0.2718
  Jak2 avg_logFC: −0.3294
  Lars2 avg_logFC: −0.2737
  Lcp1 avg_logFC: −0.279
  Lyz1 avg_logFC: −0.3109
  Mafb avg_logFC: −0.2732
  Malt1 avg_logFC: −0.4497
  Mir6236 avg_logFC: −0.4795
  Mmp14 avg_logFC: −0.4234
  N4bp1 avg_logFC: −0.2723
  Nampt avg_logFC: −0.2539
  Nfkb1 avg_logFC: −0.3187
  Pabpc1 avg_logFC: −0.3065
  Plek avg_logFC: −0.3121
  Prkcd avg_logFC: −0.4952
  Ptgs2 avg_logFC: −0.2589
  Qsox1 avg_logFC: −0.2981
  Rbbp6 avg_logFC: −0.2693
  Rbms1 avg_logFC: −0.306
  Rbpj avg_logFC: −0.2858
  Retnla avg_logFC: −1.013
  Rgcc avg_logFC: −0.3356
  Rhob avg_logFC: −0.3443
  Rnf19b avg_logFC: −0.4071
  Rpl23a avg_logFC: −0.3395
  Scd2 avg_logFC: −0.3267
  Sdc4 avg_logFC: −0.5729
  Slc2a1 avg_logFC: −0.2726
  Slc7a2 avg_logFC: −0.4582
  Slc7a11 avg_logFC: −0.3846
  Slpi avg_logFC: −0.3695
  Smox avg_logFC: −0.2743
  Spp1 avg_logFC: −0.5367
  Srgn avg_logFC: −0.3751
  Tapbp avg_logFC: −0.2542
  Tes avg_logFC: −0.2663
  Tgfbi avg_logFC: −0.2874
  Tgm2 avg_logFC: −0.345
  Timp1 avg_logFC: −0.3922
  Ywhaz avg_logFC: −0.3465
  Zeb2 avg_logFC: −0.2704
  Zfp36l2 avg_logFC: −0.2732
[2]
  AF251705 avg_logFC: 0.2639
  Al607873 avg_logFC: 0.2786
  Apoe avg_logFC: 0.569
  Arl5c avg_logFC: 0.2656
  Bst2 avg_logFC: 0.2961
  C1qa avg_logFC: 0.4214
  C1qb avg_logFC: 0.5188
  C1qc avg_logFC: 0.4208
  Ccrl2 avg_logFC: 0.3263
  Cd14 avg_logFC: 0.2715
  Cd48 avg_logFC: 0.2715
  Cfh avg_logFC: 0.2625
  Chil3 avg_logFC: 1.253
  Ckb avg_logFC: 0.2847
  Cst3 avg_logFC: 0.3446
  Dpep2 avg_logFC: 0.3725
  Fcer1g avg_logFC: 0.3137
  Fcrls avg_logFC: 0.5638
  Gdf3 avg_logFC: 0.2851
  Gm10076 avg_logFC: 0.3757
  Gm10222 avg_logFC: 0.2577
  H2-D1 avg_logFC: 0.2808
  Hint1 avg_logFC: 0.2548
  Id3 avg_logFC: 0.2699
  Ifi27l2a avg_logFC: 0.5245
  Ifitrn2 avg_logFC: 0.374
  Ifitrn3 avg_logFC: 0.2755
  Itga6 avg_logFC: 0.3437
  Itm2b avg_logFC: 0.4104
  Lrg1 avg_logFC: 0.3663
  Ly6c2 avg_logFC: 0.2657
  Lyz2 avg_logFC: 0.2885
  Mgl2 avg_logFC: 0.5712
  Mt1 avg_logFC: 0.4006
  Pf4 avg_logFC: 0.4715
  Rgs10 avg_logFC: 0.2599
  Rpl3 avg_logFC: 0.278
  Rpl9 avg_logFC: 0.2585
  Rpl21 avg_logFC: 0.2567
  Rpl29 avg_logFC: 0.2548
  Rplp0 avg_logFC: 0.333
  Rps2 avg_logFC: 0.2742
  Rps11 avg_logFC: 0.2704
  Rps20 avg_logFC: 0.2922
  S100a8 avg_logFC: 0.7858
  Thbs1 avg_logFC: 0.3189
  Trem2 avg_logFC: 0.4831
  Tspo avg_logFC: 0.2604
CD68+ cells, Genes up-regulated upon E2 treatment, first Tmem176 line
  Tmem176 avg_logFC: 0.3209
CD68+ cells, Genes up-regulated upon E2 treatment, second Tmem176 line
  Tmem176 avg_logFC: 0.3394
E2 group
  inflammation/chemokine genes (Itm2b, C1q) and M2 macrophage markers (Tspo, Vegfa, Tgm2) in CD68+ cells: upregulated
E2 treated tumors
  TAM markers (Trem2, Apoe, Thbs1, Spp1) in CD68+ monocyte/TAM population: expressed
E2 vs placebo
  CD68+ monocytes/TAMs clusters: expansion and significant changes in gene expression
  cluster 1 (M1-like TAMs): remained unchanged
  cluster 3 (inflammatory monocytes): increased
  cluster 8: expansion
  cluster 9 (immune-suppressive phenotype): significant expansion
  cluster 15 (M1-like TAMs): decreased
  cluster 16 (patrolling tissue resident monocytes): increased
  cluster 22: remained unchanged
  cluster 30: expansion
  percentage of Ly6C^hi monocytes (cluster 2): remained the same
